# Reference: ChEMBL document CHEMBL5241112, “Insights into the recent progress in the medicinal chemistry of pyranopyrimidine analogs” (RSC Med Chem, 2022)
# pIC50: −log10 of the molar value.
# Experiments:
# [1] = target: Hydroxycarboxylic acid receptor 2 (Homo sapiens, UniProt Q8TDS4); assay: Agonist activity at human HCA2 expressed in human Flp-In-293 cells assessed as inhibition of forskolin-stimulated cAMP accumulation at 50 uM incubated for 30 mins by Lance cAMP assay; format: cell-based; conditions: filed as agonist
# Sequence of Hydroxycarboxylic acid receptor 2 (Q8TDS4 whole entry, the tested form may be a part): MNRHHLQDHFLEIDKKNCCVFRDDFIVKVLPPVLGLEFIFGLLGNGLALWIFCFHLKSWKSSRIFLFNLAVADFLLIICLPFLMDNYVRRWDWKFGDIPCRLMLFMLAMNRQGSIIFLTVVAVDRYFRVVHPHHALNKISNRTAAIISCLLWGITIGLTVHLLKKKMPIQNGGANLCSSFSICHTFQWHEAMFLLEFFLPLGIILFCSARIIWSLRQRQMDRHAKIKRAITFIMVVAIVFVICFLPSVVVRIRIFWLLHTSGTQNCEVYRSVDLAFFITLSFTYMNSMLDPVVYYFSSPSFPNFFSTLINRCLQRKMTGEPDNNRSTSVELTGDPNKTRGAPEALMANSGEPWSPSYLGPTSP
# Aspergillus niger [2] = assay: Antifungal activity against Aspergillus niger ATCC 6275 assessed as diameter of inhibition zone incubated for 7 days by disc diffusion assay; format: functional; conditions: time 7 day
# Aspergillus niger [3] = assay: Antifungal activity against Aspergillus niger ATCC 6275 assessed as inhibition of […] growth incubated for 7 days by broth macrodilution method; format: functional; conditions: ATCC 6275, 168 h, time 7 day
# MCF7 [4] = assay: Anticancer activity against human MCF7 cells assessed as reduction in cell viability; format: functional, cell-based
# HepG2 = assay: Anticancer activity against human HepG2 cells assessed as reduction in cell viability; format: functional, cell-based
# Bacillus subtilis [5] = assay: Antibacterial activity against Bacillus subtilis ATCC 6633 assessed as diameter of inhibition zone incubated for 24 hrs by disc diffusion assay; format: functional
# Staphylococcus aureus [6] = assay: Antibacterial activity against Staphylococcus aureus ATCC 25923 assessed as inhibition of bacterial growth incubated for 24 hrs by broth macrodilution method; format: functional
# Bacillus subtilis [7] = assay: Antibacterial activity against Bacillus subtilis ATCC 6633 assessed as inhibition of bacterial growth incubated for 24 hrs by broth macrodilution method; format: functional
# Staphylococcus aureus [8] = assay: Antibacterial activity against Staphylococcus aureus ATCC 25923 assessed as diameter of inhibition zone incubated for 24 hrs by disc diffusion assay; format: functional
# HCT-116 = assay: cells; conditions: Homo sapiens
# [9] = Antioxidant activity assessed as DPPH radical scavenging activity at 100 ug/ml incubated for 30 mins by spectrophotometric analysis; format: functional; conditions: dose 100.0 µg/ml
# [10] = Antioxidant activity assessed as DPPH radical scavenging activity at 50 ug/ml incubated for 30 mins by spectrophotometric analysis; format: functional; conditions: dose 50.0 µg/ml
# [11] = Antioxidant activity assessed as DPPH radical scavenging activity at 75 ug/ml incubated for 30 mins by spectrophotometric analysis; format: functional; conditions: dose 75.0 µg/ml
# Salmonella typhimurium = assay: Antibacterial activity against Salmonella typhimurium MTCC 98 assessed as bacterial growth inhibition by broth microdilution method; format: functional, Salmonella enterica subsp. enterica serovar Typhimurium; conditions: Salmonella enterica
# Escherichia coli [12] = assay: Antibacterial activity against Escherichia coli MTCC 443 assessed as bacterial growth inhibition by broth microdilution method; format: functional
# Clostridium tetani = assay: Antibacterial activity against Clostridium tetani MTCC 449 assessed as bacterial growth inhibition by broth microdilution method; format: functional
# Aspergillus fumigatus [13] = assay: Antifungal activity against Aspergillus fumigatus MTCC 227 assessed as fungal growth inhibition by broth microdilution method; format: functional
# [14] = test system: Mycobacterium tuberculosis; assay: Antitubercular activity against Mycobacterium tuberculosis H37Rv assessed as bacterial growth inhibition at 250 ug/ml; format: functional
# [15] = test system: Mycobacterium tuberculosis; assay: Antitubercular activity against Mycobacterium tuberculosis H37Rv assessed as bacterial growth inhibition at 100 ug/ml; format: functional
# Staphylococcus aureus [16] = assay: Antibacterial activity against Staphylococcus aureus ATCC6538-P assessed as diameter of inhibition zone at 50 mg/ml incubated for 24 hrs by paper disk diffusion method; format: functional; conditions: read-out: DIZ
# Streptococcus pneumoniae = assay: Antibacterial activity against Streptococcus pneumoniae ATCC BAA-255/R6 assessed as diameter of inhibition zone at 50 mg/ml incubated for 24 hrs by paper disk diffusion method; format: functional; conditions: read-out: DIZ
# Klebsiella pneumoniae = assay: Antibacterial activity against Klebsiella pneumoniae MGH 78578 assessed as diameter of inhibition zone at 50 mg/ml incubated for 24 hrs by paper disk diffusion method; format: functional; conditions: read-out: DIZ
# Aspergillus fumigatus [17] = assay: microbe, parasite or virus in culture; format: functional; conditions: ATCC204305, dose 50 mg/ml, time 24 hrs, read-out: DIZ
# Bacillus pumilus [18] = assay: Antibacterial activity against Bacillus pumilus assessed as inhibition of bacterial growth by microdilution method; format: functional
# Aspergillus niger [19] = assay: […] activity against Aspergillus niger assessed as […] by microdilution method; format: functional
# Candida albicans [20] = assay: Antifungal activity against Candida albicans assessed as inhibition of fungal growth by microdilution method; format: functional
# Enterococcus faecalis [21] = assay: Antibacterial activity against […] assessed as inhibition of bacterial growth at MIC by microdilution method; format: functional
# Enterobacter cloacae [22] = assay: Antibacterial activity against Enterobacter cloacae assessed as inhibition of bacterial growth at MIC by microdilution method; format: functional
# Enterococcus faecalis [23] = assay: Antibacterial activity against […] assessed as minimum bactericidal concentration by microdilution method; format: functional
# Aspergillus niger [24] = assay: Antifungal activity against Aspergillus niger assessed as inhibition of fungal growth by microdilution method; format: functional
# Aspergillus niger [25] = assay: Antifungal activity against Aspergillus niger assessed as inhibition of fungal growth at MIC by microdilution method; format: functional
# Enterobacter cloacae [26] = assay: Antibacterial activity against Enterobacter cloacae assessed as inhibition of bacterial growth by microdilution method; format: functional
# Candida albicans [27] = assay: […] activity against Candida albicans assessed as […] by microdilution method; format: functional
# Bacillus pumilus [28] = assay: Antibacterial activity against Bacillus pumilus assessed as inhibition of bacterial growth at MIC by microdilution method; format: functional
# Bacillus pumilus [29] = assay: Antibacterial activity against Bacillus pumilus assessed as minimum bactericidal concentration by microdilution method; format: functional
# Enterococcus faecalis [30] = assay: Antibacterial activity against […] assessed as inhibition of bacterial growth by microdilution method; format: functional
# Candida albicans [31] = assay: Antifungal activity against Candida albicans assessed as inhibition of fungal growth at MIC by microdilution method; format: functional
# Enterobacter cloacae [32] = assay: Antibacterial activity against Enterobacter cloacae assessed as minimum bactericidal concentration by microdilution method; format: functional
# Escherichia coli [33] = assay: Antibacterial activity against Escherichia coli assessed as inhibition of bacterial growth by microdilution method; format: functional
# Bacillus subtilis [34] = assay: Antimicrobial activity against Bacillus subtilis assessed as diameter of inhibition zone by agar well diffusion method; format: functional
# Escherichia coli [35] = assay: Antimicrobial activity against Escherichia coli assessed as diameter of inhibition zone by agar well diffusion method; format: functional
# PC-3 [36] = assay: Anticancer activity against human PC-3 cells assessed as cell growth inhibition by sulforhodamine B assay; format: functional
# PC-3 [37] = assay: Anticancer activity against human PC-3 cells assessed as lethality by sulforhodamine B assay; format: functional; conditions: read-out: LC50 (the source's name)
# OVCAR-3 [38] = assay: Anticancer activity against human OVCAR-3 cells assessed as lethality by sulforhodamine B assay; format: functional; conditions: read-out: LC50 (the source's name)
# PC-3 [39] = assay: Anticancer activity against human PC-3 cells assessed as tumor growth inhibition by sulforhodamine B assay; format: functional
# MDA-MB-435 [40] = assay: Anticancer activity against human MDA-MB-435 cells assessed as cell growth inhibition by sulforhodamine B assay; format: functional
# MDA-MB-435 [41] = assay: Anticancer activity against human MDA-MB-435 cells assessed as tumor growth inhibition by sulforhodamine B assay; format: functional
# MDA-MB-435 [42] = assay: Anticancer activity against human MDA-MB-435 cells assessed as lethality by sulforhodamine B assay; format: functional; conditions: read-out: LC50 (the source's name)
# OVCAR-3 [43] = assay: Anticancer activity against human OVCAR-3 cells assessed as cell growth inhibition by sulforhodamine B assay; format: functional
# OVCAR-3 [44] = assay: Anticancer activity against human OVCAR-3 cells assessed as tumor growth inhibition by sulforhodamine B assay; format: functional
# MCF7 [45] = assay: cells; conditions: Homo sapiens, MCF7, 48 h
# HeLa = assay: Anticancer activity against human HeLa cells assessed as reduction in cell viability incubated for 48 hrs by MTT assay; format: functional, cell-based
compound,measurement,setting,value
NC(=O)CSc1nc(=O)c2c(CCCCCl)cc(=O)oc2[nH]1,Emax,[1],87%
C[C@@H]1[C@H](O)[C@@H](C)/C=C/C=C/C=C/C=C/C=C/C=C/C=C/[C@H](O[C@@H]2O[C@H](C)[C@@H](O)[C@H](N)[C@@H]2O)C[C@@H]2O[C@](O)(C[C@@H](O)C[C@@H](O)[C@H](O)CC[C@@H](O)C[C@@H](O)CC(=O)O[C@H]1C)C[C@H](O)[C@H]2C(=O)O [AMPHOTERICIN B],diameter of the inhibition zone (DIZ),Aspergillus niger [2],26.3 mm
same,MIC,Aspergillus niger [3],0.781 µg/mL
COc1ccc(C2c3c([nH]c(=O)[nH]c3=O)Oc3ncn(C(N)=O)c(=N)c32)cc1 (stereo unspecified),pIC50,MCF7 [4],5.61
same,pIC50,HepG2,5.68
same,diameter of the inhibition zone (DIZ),Bacillus subtilis [5],26 mm
same,MIC,Staphylococcus aureus [6],0.781 µg/mL
same,MIC,Bacillus subtilis [7],0.097 µg/mL
same,diameter of the inhibition zone (DIZ),Staphylococcus aureus [8],21.7 mm
same,pIC50,HCT-116,5.58
O=c1c(C2c3c(-c4ccccc4)n[nH]c3Oc3[nH]c(=S)[nH]c(=S)c32)coc2ccccc12 (stereo unspecified),Activity,[9],86.4%
same,Activity,[10],66.5%
same,Activity,[11],84.3%
CCOC(=O)C1=C(N)Oc2c(c(=O)n(C)c(=O)n2C)C1c1c(C)nn(-c2ccccc2)c1-n1ccnc1 (stereo unspecified),MIC,Salmonella typhimurium,100 µg/mL
same,MIC,Escherichia coli [12],62.5 µg/mL
same,MIC,Clostridium tetani,100 µg/mL
same,MIC,Aspergillus fumigatus [13],200 µg/mL
same,inhibition at 250 µg/mL,[14],84%
same,inhibition at 100 µg/mL,[15],30%
Cc1nc2c(c(=O)[nH]1)C(c1ccc(Cl)cc1)C=C(c1cc3ccccc3oc1=O)O2 (stereo unspecified),zone of inhibition at 50000 µg/mL,Staphylococcus aureus [16],10 mm
same,zone of inhibition at 50000 µg/mL,Streptococcus pneumoniae,14 mm
same,zone of inhibition at 50000 µg/mL,Klebsiella pneumoniae,20 mm
same,zone of inhibition at 50000 µg/mL,Aspergillus fumigatus [17],10 mm
CCOC(=O)C1=C(N)OC2C(C(=O)N(c3ccc(C)cc3)C(=S)N2c2ccc(C)cc2)C1c1ccccc1 (stereo unspecified),MIC,Bacillus pumilus [18],31.2 µg/mL
same,MBC,Aspergillus niger [19],500 µg/mL
same,MIC,Candida albicans [20],31.2 µg/mL
same,inhibition (INH),Enterococcus faecalis [21],69.5%
same,inhibition (INH),Enterobacter cloacae [22],29.2%
same,MBC,Enterococcus faecalis [23],62.5 µg/mL
same,MIC,Aspergillus niger [24],15.6 µg/mL
same,inhibition (INH),Aspergillus niger [25],85.1%
same,MIC,Enterobacter cloacae [26],62.5 µg/mL
same,MBC,Candida albicans [27],62.5 µg/mL
same,inhibition (INH),Bacillus pumilus [28],66.4%
same,MBC,Bacillus pumilus [29],125 µg/mL
same,MIC,Enterococcus faecalis [30],15.6 µg/mL
same,inhibition (INH),Candida albicans [31],79.7%
same,MBC,Enterobacter cloacae [32],62.5 µg/mL
same,MIC,Escherichia coli [33],15.6 µg/mL
C[C@H]1COc2c(N3CCN(C)CC3)c(F)cc3c(=O)c(C(=O)O)cn1c23.C[C@H]1COc2c(N3CCN(C)CC3)c(F)cc3c(=O)c(C(=O)O)cn1c23.O [LEVOFLOXACIN],diameter of the inhibition zone (DIZ),Bacillus subtilis [34],26 mm
same,diameter of the inhibition zone (DIZ),Escherichia coli [35],29.35 mm
N#CC1=C(N)Oc2[nH]c(=O)[nH]c(=O)c2C1c1ccco1 (stereo unspecified),GI50,PC-3 [36],> 100 µM
same,CC50,PC-3 [37],> 100 µM
same,CC50,OVCAR-3 [38],> 100 µM
same,TGI,PC-3 [39],98.8%
same,GI50,MDA-MB-435 [40],> 100 µM
same,TGI,MDA-MB-435 [41],>100%
same,CC50,MDA-MB-435 [42],> 100 µM
same,GI50,OVCAR-3 [43],> 100 µM
same,TGI,OVCAR-3 [44],>100%
COc1cccc2c1C(=O)c1c(O)c3c(c(O)c1C2=O)C[C@@](O)(C(=O)CO)C[C@@H]3O[C@H]1C[C@H](N)[C@H](O)[C@H](C)O1.Cl [DOXORUBICIN HYDROCHLORIDE],GI50,PC-3 [36],< 0.1 µM
same,CC50,PC-3 [37],> 100 µM
same,CC50,OVCAR-3 [38],> 100 µM
same,TGI,PC-3 [39],76.7%
same,pIC50,MCF7 [45],> 5.00
same,GI50,MDA-MB-435 [40],< 0.1 µM
same,TGI,MDA-MB-435 [41],5.5%
same,pIC50,HeLa,> 5.00
same,CC50,MDA-MB-435 [42],91.8 µM
same,GI50,OVCAR-3 [43],< 0.1 µM
same,TGI,OVCAR-3 [44],56.3%
